The values that follow come from patent US9062041B2 (Bayer Intellectual Property GmbH, priority 2011, dated 2015).

What all share (type): cell-based
One test concerns the target T1, human PGD receptor (Homo sapiens, UniProt Q13258).
T1 sequence (Q13258 1-359): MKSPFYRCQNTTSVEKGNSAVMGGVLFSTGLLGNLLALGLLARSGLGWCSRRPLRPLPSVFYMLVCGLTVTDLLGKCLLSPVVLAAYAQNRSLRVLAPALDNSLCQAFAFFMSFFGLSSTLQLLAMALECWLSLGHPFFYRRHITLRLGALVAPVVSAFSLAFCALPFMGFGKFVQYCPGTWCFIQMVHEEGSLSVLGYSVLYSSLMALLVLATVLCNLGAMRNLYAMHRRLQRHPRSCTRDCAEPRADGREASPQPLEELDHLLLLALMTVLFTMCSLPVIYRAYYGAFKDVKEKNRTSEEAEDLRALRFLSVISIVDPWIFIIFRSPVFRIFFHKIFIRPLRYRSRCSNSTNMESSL
The test can be described thus: cAMP antagonism test on the human prostaglandin D receptor (HTRF cAMP detection). As to conditions: selectivity towards hDP, IC50 measured by cAMP antagonism test. The method, boiled down: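 Cells pre-mixed with cAMP-d2 were preincubated with compound (0.8 nM–16.5 μM) for 20 min at RT, then stimulated with 3× PGD2 solution (6 nM, in PBS-IBMX) for 30 min at RT. After lysis (20 min), HTRF read at 665/620 nm; antagonism seen as rise in FRET ratio.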

For test [1], the target named is EP4 subtype of the human PGE2 receptor (Homo sapiens, UniProt P35408). The test is described as follows: cAMP antagonism test on the human EP4 receptor (HTRF cAMP detection). Particulars: selectivity towards hEP4, IC50 measured by cAMP antagonism test. An outline of the steps: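 Cells expressing human EP4 preincubated 20 min at RT with compound (0.8 nM–16.5 μM), then stimulated with PGE2 (0.3 nM in 3× solution, with IBMX) 60 min at RT. After lysis, cAMP measured by HTRF competition (665/620 nm ratio); antagonism seen as rise in FRET signal.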
EP4 subtype of the human PGE2 receptor, sequence (P35408 whole entry): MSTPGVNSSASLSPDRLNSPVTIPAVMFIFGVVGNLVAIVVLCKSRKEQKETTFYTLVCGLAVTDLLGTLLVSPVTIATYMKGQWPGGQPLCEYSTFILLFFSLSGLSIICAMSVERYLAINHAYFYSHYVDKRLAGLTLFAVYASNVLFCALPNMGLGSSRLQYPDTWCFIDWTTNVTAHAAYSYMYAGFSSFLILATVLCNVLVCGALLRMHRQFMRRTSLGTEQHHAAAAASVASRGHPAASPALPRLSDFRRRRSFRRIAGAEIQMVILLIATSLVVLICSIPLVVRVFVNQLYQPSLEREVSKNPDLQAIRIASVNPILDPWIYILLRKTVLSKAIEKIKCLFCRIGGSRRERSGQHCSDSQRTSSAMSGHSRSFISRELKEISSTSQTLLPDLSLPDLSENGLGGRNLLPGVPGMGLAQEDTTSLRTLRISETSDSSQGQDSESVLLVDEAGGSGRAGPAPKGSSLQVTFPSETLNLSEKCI

For test [2], the target named is EP2 subtype of the human PGE2 receptor (Homo sapiens, UniProt P43116). The test can be described thus: cAMP antagonism test on the human EP2 receptor (HTRF cAMP detection). Particulars: hEP2 receptor, read-out: Antagonism hEP2 IC50. An outline of the steps: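 Cells expressing human EP2 preincubated 20 min at RT with compound (0.8 nM–16.5 μM), then stimulated 60 min with PGE2 (3× solution 1.5 nM) in PBS-IBMX. After 20 min lysis, cAMP measured by competitive HTRF with cAMP-d2 and Eu cryptate anti-cAMP antibody (665/620 nm ratio).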
EP2 subtype of the human PGE2 receptor, sequence (P43116 whole entry): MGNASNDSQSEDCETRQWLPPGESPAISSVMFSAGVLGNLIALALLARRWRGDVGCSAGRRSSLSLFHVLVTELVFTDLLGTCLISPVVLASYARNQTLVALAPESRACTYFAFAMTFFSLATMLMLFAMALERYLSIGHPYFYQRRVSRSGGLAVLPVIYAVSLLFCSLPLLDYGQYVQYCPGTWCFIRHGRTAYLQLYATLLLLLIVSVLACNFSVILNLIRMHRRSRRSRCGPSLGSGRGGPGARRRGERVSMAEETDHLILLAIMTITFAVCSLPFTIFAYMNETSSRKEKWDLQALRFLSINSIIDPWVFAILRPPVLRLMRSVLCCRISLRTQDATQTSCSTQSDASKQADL

The IC50 is the concentration that gives 50% inhibition. `COCCNC(=O)c1ccc2nn(CC3CCN(C(=O)c4nc5ccccc5o4)CC3)cc2c1C` [Example 340, 2-{[1-(benzoxazol-2-ylcarbonyl)piperidin-4-yl]methyl}-N-(2-methoxyethyl)-4-methyl-2H-indazol-5-carboxamide]: at human PGD receptor, the “Selectivity hEP2/hDP” value is recorded as “xxx (xxx > 100)”. For the same compound, the “Selectivity hEP2/hEP4” value in test [1] was “xxx (xxx > 100)”. In addition, the IC50 in test [2] is 19.9 nM.

As to `Cc1c(C(=O)NCCOC(C)(C)C)ccc2nn(CC3CN(C(=O)c4ccc(Cl)cc4)C3)cc12` [Example 153, N-(2-tert-butoxyethyl)-2-{[1-(4-chlorobenzoyl)azetidin-3-yl]methyl}-4-methyl-2H-indazol-5-carboxamide], the “Selectivity hEP2/hDP” value on human PGD receptor is “xxx (xxx > 100)”. In addition, the “Selectivity hEP2/hEP4” value in test [1] is on record as “xxx (xxx > 100)”. In addition, the IC50 in test [2] is 60.8 nM.

`COCCNC(=O)c1ccc2nn(CC3CCN(C(=O)c4ccc(-c5cccnc5)c(C)c4)CC3)cc2c1C` [Example 392, N-(2-methoxyethyl)-4-methyl-2-({1-[3-methyl-4-(3-pyridyl)benzoyl]piperidin-4-yl}methyl)-2H-indazol-5-carboxamide]: the “Selectivity hEP2/hDP” value on human PGD receptor is given as “xxx (xxx > 100)”. Moreover, the “Selectivity hEP2/hEP4” value in test [1] is “xxx (xxx > 100)”. Further, in test [2], the IC50 was 21.8 nM.

For the compound `Cc1c(C(=O)NCCOC(F)(F)F)ccc2nn(CC3CCN(C(=O)c4ccc(Oc5ccc(C(F)(F)F)cc5)cc4)CC3)cc12` [Example 110, 4-methyl-N-[2-(trifluoromethoxy)ethyl]-2-[(1-{4-[4-(trifluoro-methyl)phenoxy]-benzoyl}piperidin-4-yl)-methyl]-2H-indazol-5-carboxamide], at human PGD receptor, the “Selectivity hEP2/hDP” value was “xxx (xxx > 100)”. In test [1], the “Selectivity hEP2/hEP4” value is “xxx (xxx > 100)”. Also, the IC50 in test [2] worked out at 4.4 nM.

On to `COCCNC(=O)c1ccc2nn(CC3CCN(C(=O)c4ccc(N5CCOCC5)cc4)CC3)cc2c1C` [Example 4, N-(2-methoxyethyl)-4-methyl-2-{[1-(4-morpholinobenzoyl)piperidin-4-yl]methyl}-2H-indazol-5-carboxamide], for which the “Selectivity hEP2/hDP” value at human PGD receptor is “xxx (xxx > 100)”. The “Selectivity hEP2/hEP4” value in test [1] is recorded as “xxx (xxx > 100)”. Further, the IC50 in test [2] was determined as 68.1 nM.

Consider `O=C(NCCOCC1CC1)c1ccc2nn(CC3CCN(C(=O)c4ccc(Oc5ccc(F)cc5)cc4)CC3)cc2c1OCC(F)(F)F` [Example 236, N-[2-(cyclopropylmethoxy)ethyl]-2-({1-[4-(4-fluorophenoxy)benzoyl]piperidin-4-yl}methyl)-4-(2,2,2-trifluoroethoxy)-2H-indazol-5-carboxamide], for which the “Selectivity hEP2/hDP” value on human PGD receptor was “xxx (xxx > 100)”. In addition, the “Selectivity hEP2/hEP4” value in test [1] is recorded as “xxx (xxx > 100)”. For the same compound, the IC50 in test [2] worked out at 57.5 nM.

As for `COCCNC(=O)c1ccc2nn(CC3CCN(C(=O)c4cnc(-c5ccccc5)s4)CC3)cc2c1C` [Example 337, N-(2-methoxyethyl)-4-methyl-2-({1-[(2-phenylthiazol-5-yl)carbonyl]piperidin-4-yl}methyl)-2H-indazol-5-carboxamide], the “Selectivity hEP2/hDP” value on human PGD receptor is listed as “xxx (xxx > 100)”. For the same compound, in test [1], the “Selectivity hEP2/hEP4” value is on record as “xxx (xxx > 100)”. Also, in test [2], the IC50 was 18.1 nM.

Regarding `Cc1c(C(=O)NCCOCC2CC2)ccc2nn(CC3CN(C(=O)c4ccc(Cl)cc4)C3)cc12` [Example 149, 2-{[1-(4-chlorobenzoyl)azetidin-3-yl]methyl}-N-[2-(cyclopropylmethoxy)ethyl]-4-methyl-2H-indazol-5-carboxamide], the “Selectivity hEP2/hDP” value on human PGD receptor is reported as “xxx (xxx > 100)”. In addition, the “Selectivity hEP2/hEP4” value in test [1] is “xxx (xxx > 100)”. Also, in test [2], the IC50 came to 29.6 nM.

As to `COCCNC(=O)c1ccc2nn(CC3CCN(C(=O)c4ccc(-c5ccc(C)c(C)c5)cc4F)CC3)cc2c1C` [Example 363, 2-({1-[(3-fluoro-3′,4′-dimethylbiphenyl-4-yl)carbonyl]piperidin-4-yl}methyl)-N-(2-methoxyethyl)-4-methyl-2H-indazol-5-carboxamide], the “Selectivity hEP2/hDP” value on human PGD receptor is “xxx (xxx > 100)”. Besides, in test [1], the “Selectivity hEP2/hEP4” value is listed as “xxx (xxx > 100)”. The IC50 in test [2] is 5.48 nM.
